{
  "source": "the kinase profiling compilation of Christmann-Franck et al. (2016)",
  "assay_in_all_cases": "radiometric filter-binding kinase assay, Kinase HotSpot",
  "details_in_all_cases": "compound 0.5 µM; ATP 10 µM",
  "key": {"[1]": {"biological_target": "OXSR1 (human) (UniProt O95747)"}, "[2]": {"biological_target": "PTK2 (human) (UniProt Q05397)"}, "[3]": {"biological_target": "CAMK1G (human) (UniProt Q96NX5)"}, "[4]": {"biological_target": "PAK1 (human) (UniProt Q13153)"}, "[5]": {"biological_target": "CSNK1G2 (human) (UniProt P78368)", "sequence (P78368 whole entry, looked up)": "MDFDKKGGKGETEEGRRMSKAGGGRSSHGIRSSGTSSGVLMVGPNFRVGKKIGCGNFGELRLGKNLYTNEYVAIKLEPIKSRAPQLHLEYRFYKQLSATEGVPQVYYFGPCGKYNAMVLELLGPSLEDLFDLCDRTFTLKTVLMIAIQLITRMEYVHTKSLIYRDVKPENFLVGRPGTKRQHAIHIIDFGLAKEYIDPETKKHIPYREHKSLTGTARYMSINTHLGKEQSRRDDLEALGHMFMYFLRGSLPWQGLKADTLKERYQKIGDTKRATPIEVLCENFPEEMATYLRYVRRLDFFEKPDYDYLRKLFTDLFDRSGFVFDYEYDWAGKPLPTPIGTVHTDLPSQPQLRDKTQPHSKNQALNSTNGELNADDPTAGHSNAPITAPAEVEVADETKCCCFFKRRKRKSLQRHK"}, "[6]": {"biological_target": "MARK1 (human) (UniProt Q9P0L2)"}, "[7]": {"biological_target": "EPHA7 (human) (UniProt Q15375)"}, "[8]": {"biological_target": "NEK7 (human) (UniProt Q8TDX7)"}, "[9]": {"biological_target": "FRK (human) (UniProt P42685)"}, "[10]": {"biological_target": "ADRBK1 (human) (UniProt P25098)"}, "[11]": {"biological_target": "MAP4K4 (human) (UniProt O95819)"}, "[12]": {"biological_target": "STK3 (human) (UniProt Q13188)"}, "[13]": {"biological_target": "NEK9 (human) (UniProt Q8TD19)"}, "[14]": {"biological_target": "CDC42BPA (human) (UniProt Q5VT25)"}, "[15]": {"biological_target": "PTK2B (human) (UniProt Q14289)"}, "[16]": {"biological_target": "MATK (human) (UniProt P42679)", "sequence (P42679 whole entry, looked up)": "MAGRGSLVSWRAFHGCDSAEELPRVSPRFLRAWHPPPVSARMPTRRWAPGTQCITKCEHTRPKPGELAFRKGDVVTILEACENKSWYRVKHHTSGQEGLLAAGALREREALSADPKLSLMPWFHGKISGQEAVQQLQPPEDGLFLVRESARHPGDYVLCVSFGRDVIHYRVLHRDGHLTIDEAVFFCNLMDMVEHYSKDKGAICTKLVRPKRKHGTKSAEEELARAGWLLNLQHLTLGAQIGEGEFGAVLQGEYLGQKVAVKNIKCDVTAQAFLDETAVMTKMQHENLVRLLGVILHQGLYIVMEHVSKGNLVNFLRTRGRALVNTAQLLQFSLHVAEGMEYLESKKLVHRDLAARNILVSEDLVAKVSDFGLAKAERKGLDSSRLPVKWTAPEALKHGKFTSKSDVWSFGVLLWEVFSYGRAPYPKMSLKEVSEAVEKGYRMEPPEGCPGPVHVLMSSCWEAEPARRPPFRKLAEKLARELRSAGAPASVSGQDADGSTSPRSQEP"}, "[17]": {"biological_target": "CAMK2G (human) (UniProt Q13555)"}, "[18]": {"biological_target": "RET (human) (UniProt P07949)"}, "[19]": {"biological_target": "MAPK9 (human) (UniProt P45984)", "sequence (P45984 whole entry, looked up)": "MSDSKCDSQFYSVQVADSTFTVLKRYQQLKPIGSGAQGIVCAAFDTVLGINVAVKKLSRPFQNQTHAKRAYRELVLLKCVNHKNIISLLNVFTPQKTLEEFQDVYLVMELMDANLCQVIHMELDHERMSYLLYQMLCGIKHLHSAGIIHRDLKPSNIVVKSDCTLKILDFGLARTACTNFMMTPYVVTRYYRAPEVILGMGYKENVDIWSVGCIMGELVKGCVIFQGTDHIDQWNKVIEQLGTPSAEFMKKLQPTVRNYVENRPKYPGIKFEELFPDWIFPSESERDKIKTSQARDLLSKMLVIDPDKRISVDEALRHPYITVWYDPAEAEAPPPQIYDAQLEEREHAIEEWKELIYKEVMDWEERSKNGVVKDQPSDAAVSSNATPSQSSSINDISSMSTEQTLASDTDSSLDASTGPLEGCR"}, "[20]": {"biological_target": "PIM2 (human) (UniProt Q9P1W9)"}, "[21]": {"biological_target": "IKBKB (human) (UniProt O14920)"}, "[22]": {"biological_target": "DYRK1B (human) (UniProt Q9Y463)", "sequence (Q9Y463 whole entry, looked up)": "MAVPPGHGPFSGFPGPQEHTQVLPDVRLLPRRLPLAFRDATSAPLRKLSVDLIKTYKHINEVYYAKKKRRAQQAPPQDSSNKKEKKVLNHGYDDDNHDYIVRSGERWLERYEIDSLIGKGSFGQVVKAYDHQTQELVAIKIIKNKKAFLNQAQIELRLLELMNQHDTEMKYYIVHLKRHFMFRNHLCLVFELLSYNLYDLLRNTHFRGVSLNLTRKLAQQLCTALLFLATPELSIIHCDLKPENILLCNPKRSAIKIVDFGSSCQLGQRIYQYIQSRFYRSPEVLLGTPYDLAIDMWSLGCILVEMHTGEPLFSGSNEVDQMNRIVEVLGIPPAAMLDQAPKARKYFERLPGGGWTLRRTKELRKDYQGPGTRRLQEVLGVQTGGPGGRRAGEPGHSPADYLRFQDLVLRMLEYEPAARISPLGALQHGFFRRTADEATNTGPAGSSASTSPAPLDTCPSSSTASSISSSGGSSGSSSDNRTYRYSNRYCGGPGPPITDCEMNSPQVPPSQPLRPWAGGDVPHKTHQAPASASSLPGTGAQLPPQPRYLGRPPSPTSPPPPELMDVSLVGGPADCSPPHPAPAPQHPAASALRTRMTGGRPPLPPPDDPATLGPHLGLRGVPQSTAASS"}, "[23]": {"biological_target": "SRMS (human) (UniProt Q9H3Y6)", "sequence (Q9H3Y6 whole entry, looked up)": "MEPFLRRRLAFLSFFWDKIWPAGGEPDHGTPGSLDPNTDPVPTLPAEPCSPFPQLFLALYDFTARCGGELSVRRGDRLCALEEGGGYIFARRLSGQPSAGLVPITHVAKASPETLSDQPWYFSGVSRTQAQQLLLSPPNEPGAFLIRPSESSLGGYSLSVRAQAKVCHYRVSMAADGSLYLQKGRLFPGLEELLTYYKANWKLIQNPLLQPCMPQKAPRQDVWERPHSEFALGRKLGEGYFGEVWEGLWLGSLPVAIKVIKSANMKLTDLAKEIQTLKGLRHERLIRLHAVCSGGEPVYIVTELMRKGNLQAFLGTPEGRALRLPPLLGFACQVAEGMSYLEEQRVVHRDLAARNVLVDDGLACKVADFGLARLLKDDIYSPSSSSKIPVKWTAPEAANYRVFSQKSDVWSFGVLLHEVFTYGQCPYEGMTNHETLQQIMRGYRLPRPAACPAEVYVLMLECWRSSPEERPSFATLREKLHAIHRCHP"}, "[24]": {"biological_target": "NEK11 (human) (UniProt Q8NG66)"}, "[25]": {"biological_target": "TSSK2 (human) (UniProt Q96PF2)"}, "[26]": {"biological_target": "MST4 (human) (UniProt Q9P289)"}, "[27]": {"biological_target": "PAK3 (human) (UniProt O75914)", "sequence (O75914 whole entry, looked up)": "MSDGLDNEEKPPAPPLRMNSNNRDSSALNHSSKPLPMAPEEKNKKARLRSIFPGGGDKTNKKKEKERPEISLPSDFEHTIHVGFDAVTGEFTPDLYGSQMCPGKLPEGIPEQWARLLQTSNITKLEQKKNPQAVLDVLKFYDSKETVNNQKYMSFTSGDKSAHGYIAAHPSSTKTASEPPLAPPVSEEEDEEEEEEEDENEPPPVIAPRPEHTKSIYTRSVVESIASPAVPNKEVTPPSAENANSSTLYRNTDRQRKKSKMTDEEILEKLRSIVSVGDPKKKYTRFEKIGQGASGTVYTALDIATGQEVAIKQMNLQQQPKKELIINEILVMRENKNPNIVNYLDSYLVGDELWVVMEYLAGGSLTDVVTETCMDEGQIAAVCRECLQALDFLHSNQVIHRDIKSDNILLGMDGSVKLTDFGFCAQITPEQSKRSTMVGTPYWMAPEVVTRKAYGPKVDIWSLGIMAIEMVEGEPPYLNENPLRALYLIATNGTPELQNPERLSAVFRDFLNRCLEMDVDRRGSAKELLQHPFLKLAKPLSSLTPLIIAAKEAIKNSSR"}, "[28]": {"biological_target": "MUSK (human) (UniProt O15146)"}, "[29]": {"biological_target": "GSK3B (human) (UniProt P49841)"}, "[30]": {"biological_target": "FES (human) (UniProt P07332)"}, "[31]": {"biological_target": "IKBKE (human) (UniProt Q14164)"}, "[32]": {"biological_target": "NUAK1 (human) (UniProt O60285)"}, "[33]": {"biological_target": "ULK1 (human) (UniProt O75385)", "sequence (O75385 whole entry, looked up)": "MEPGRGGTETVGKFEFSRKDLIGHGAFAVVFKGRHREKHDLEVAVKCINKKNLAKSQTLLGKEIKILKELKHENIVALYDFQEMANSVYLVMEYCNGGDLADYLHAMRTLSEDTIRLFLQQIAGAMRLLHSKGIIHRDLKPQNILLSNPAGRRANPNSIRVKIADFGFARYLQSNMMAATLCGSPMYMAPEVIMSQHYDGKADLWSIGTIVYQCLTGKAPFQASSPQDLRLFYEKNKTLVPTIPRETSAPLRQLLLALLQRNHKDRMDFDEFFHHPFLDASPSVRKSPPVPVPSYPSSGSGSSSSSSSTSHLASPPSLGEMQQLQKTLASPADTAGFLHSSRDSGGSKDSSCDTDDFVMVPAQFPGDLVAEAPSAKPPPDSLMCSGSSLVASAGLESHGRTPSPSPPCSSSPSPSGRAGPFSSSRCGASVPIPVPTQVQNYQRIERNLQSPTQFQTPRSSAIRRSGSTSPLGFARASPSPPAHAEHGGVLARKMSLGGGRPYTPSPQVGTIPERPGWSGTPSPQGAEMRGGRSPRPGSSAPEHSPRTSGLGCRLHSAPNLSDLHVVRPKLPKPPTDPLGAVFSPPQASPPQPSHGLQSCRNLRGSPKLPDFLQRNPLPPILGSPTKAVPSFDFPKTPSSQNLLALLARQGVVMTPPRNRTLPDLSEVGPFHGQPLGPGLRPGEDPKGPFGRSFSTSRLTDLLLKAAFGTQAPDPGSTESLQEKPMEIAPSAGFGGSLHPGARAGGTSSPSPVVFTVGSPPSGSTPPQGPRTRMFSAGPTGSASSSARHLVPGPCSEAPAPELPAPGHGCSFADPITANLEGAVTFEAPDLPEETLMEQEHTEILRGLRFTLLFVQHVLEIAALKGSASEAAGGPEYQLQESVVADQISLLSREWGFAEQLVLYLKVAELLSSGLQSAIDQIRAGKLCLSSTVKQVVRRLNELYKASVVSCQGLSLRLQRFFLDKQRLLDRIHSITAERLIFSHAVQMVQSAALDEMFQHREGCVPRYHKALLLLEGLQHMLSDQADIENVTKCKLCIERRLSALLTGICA"}, "[34]": {"biological_target": "EPHA1 (human) (UniProt P21709)"}, "[35]": {"biological_target": "CAMK2D (human) (UniProt Q13557)"}, "[36]": {"biological_target": "TAOK2 (human) (UniProt Q9UL54)"}, "[37]": {"biological_target": "PTK6 (human) (UniProt Q13882)"}, "[38]": {"biological_target": "ROCK2 (human) (UniProt O75116)"}, "[39]": {"biological_target": "RPS6KB2 (human) (UniProt Q9UBS0)"}, "[40]": {"biological_target": "PRKCD (human) (UniProt Q05655)", "sequence (Q05655 whole entry, looked up)": "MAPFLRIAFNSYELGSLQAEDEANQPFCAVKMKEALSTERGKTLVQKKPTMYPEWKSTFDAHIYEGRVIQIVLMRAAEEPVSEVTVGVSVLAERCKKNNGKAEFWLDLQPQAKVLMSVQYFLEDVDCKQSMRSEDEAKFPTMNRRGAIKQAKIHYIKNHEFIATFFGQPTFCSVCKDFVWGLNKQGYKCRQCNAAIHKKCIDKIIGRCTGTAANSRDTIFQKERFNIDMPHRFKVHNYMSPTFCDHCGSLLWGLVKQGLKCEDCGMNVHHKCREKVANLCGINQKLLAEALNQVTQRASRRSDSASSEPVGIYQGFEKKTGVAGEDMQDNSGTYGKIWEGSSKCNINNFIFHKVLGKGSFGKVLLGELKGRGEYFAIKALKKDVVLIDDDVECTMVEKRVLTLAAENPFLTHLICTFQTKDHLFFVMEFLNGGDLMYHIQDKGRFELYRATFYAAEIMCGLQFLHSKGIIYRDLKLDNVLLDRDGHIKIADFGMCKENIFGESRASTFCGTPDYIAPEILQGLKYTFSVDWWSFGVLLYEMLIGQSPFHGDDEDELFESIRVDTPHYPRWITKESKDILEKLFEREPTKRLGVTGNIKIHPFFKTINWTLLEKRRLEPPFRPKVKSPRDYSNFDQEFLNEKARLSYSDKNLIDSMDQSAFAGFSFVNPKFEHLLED"}, "[41]": {"biological_target": "STK11 (human) (UniProt Q15831)"}, "[42]": {"biological_target": "MET (human) (UniProt P08581)"}},
  "data": [
    {"smiles": "CC(C)[C@H](CO)Nc1nc(Nc2cccc(Cl)c2)c2ncn(C(C)C)c2n1", "values": [
      {"measurement": "residual activity", "setting": "[1]", "result": 94.4, "unit": "%"},
      {"measurement": "residual activity", "setting": "[2]", "result": 85.9, "unit": "%"},
      {"measurement": "residual activity", "setting": "[3]", "result": 94.9, "unit": "%"},
      {"measurement": "residual activity", "setting": "[4]", "result": 92.8, "unit": "%"},
      {"measurement": "residual activity", "setting": "[5]", "result": 32.4, "unit": "%"},
      {"measurement": "residual activity", "setting": "[6]", "result": 94.5, "unit": "%"},
      {"measurement": "residual activity", "setting": "[7]", "result": 86.8, "unit": "%"},
      {"measurement": "residual activity", "setting": "[8]", "result": 101, "unit": "%"},
      {"measurement": "residual activity", "setting": "[9]", "result": 90.2, "unit": "%"},
      {"measurement": "residual activity", "setting": "[10]", "result": 103, "unit": "%"},
      {"measurement": "residual activity", "setting": "[11]", "result": 84.9, "unit": "%"},
      {"measurement": "residual activity", "setting": "[12]", "result": 90.8, "unit": "%"},
      {"measurement": "residual activity", "setting": "[13]", "result": 93.1, "unit": "%"},
      {"measurement": "residual activity", "setting": "[14]", "result": 92.3, "unit": "%"},
      {"measurement": "residual activity", "setting": "[15]", "result": 66.5, "unit": "%"},
      {"measurement": "residual activity", "setting": "[16]", "result": 93.1, "unit": "%"},
      {"measurement": "residual activity", "setting": "[17]", "result": 96.9, "unit": "%"},
      {"measurement": "residual activity", "setting": "[18]", "result": 81.4, "unit": "%"},
      {"measurement": "residual activity", "setting": "[19]", "result": 102, "unit": "%"},
      {"measurement": "residual activity", "setting": "[20]", "result": 105, "unit": "%"},
      {"measurement": "residual activity", "setting": "[21]", "result": 107, "unit": "%"},
      {"measurement": "residual activity", "setting": "[22]", "result": 49.9, "unit": "%"},
      {"measurement": "residual activity", "setting": "[23]", "result": 104, "unit": "%"},
      {"measurement": "residual activity", "setting": "[24]", "result": 67.1, "unit": "%"},
      {"measurement": "residual activity", "setting": "[25]", "result": 97.5, "unit": "%"},
      {"measurement": "residual activity", "setting": "[26]", "result": 100, "unit": "%"},
      {"measurement": "residual activity", "setting": "[27]", "result": 94.2, "unit": "%"},
      {"measurement": "residual activity", "setting": "[28]", "result": 56.8, "unit": "%"},
      {"measurement": "residual activity", "setting": "[29]", "result": 103, "unit": "%"},
      {"measurement": "residual activity", "setting": "[30]", "result": 95.9, "unit": "%"},
      {"measurement": "residual activity", "setting": "[31]", "result": 99.2, "unit": "%"},
      {"measurement": "residual activity", "setting": "[32]", "result": 71.1, "unit": "%"},
      {"measurement": "residual activity", "setting": "[33]", "result": 67.5, "unit": "%"},
      {"measurement": "residual activity", "setting": "[34]", "result": 98.3, "unit": "%"},
      {"measurement": "residual activity", "setting": "[35]", "result": 102, "unit": "%"},
      {"measurement": "residual activity", "setting": "[36]", "result": 91.3, "unit": "%"},
      {"measurement": "residual activity", "setting": "[37]", "result": 89.2, "unit": "%"},
      {"measurement": "residual activity", "setting": "[38]", "result": 100, "unit": "%"},
      {"measurement": "residual activity", "setting": "[39]", "result": 101, "unit": "%"},
      {"measurement": "residual activity", "setting": "[40]", "result": 104, "unit": "%"},
      {"measurement": "residual activity", "setting": "[41]", "result": 84.4, "unit": "%"},
      {"measurement": "residual activity", "setting": "[42]", "result": 96.2, "unit": "%"}
    ]},
    {"smiles": "Oc1ccc(-c2nc(-c3ccc(F)cc3)c(-c3ccncc3)[nH]2)cc1", "values": [
      {"measurement": "residual activity", "setting": "[1]", "result": 97.6, "unit": "%"},
      {"measurement": "residual activity", "setting": "[2]", "result": 96.9, "unit": "%"},
      {"measurement": "residual activity", "setting": "[3]", "result": 98.5, "unit": "%"},
      {"measurement": "residual activity", "setting": "[4]", "result": 97.3, "unit": "%"},
      {"measurement": "residual activity", "setting": "[5]", "result": 91.9, "unit": "%"},
      {"measurement": "residual activity", "setting": "[6]", "result": 101, "unit": "%"},
      {"measurement": "residual activity", "setting": "[7]", "result": 86.1, "unit": "%"},
      {"measurement": "residual activity", "setting": "[8]", "result": 103, "unit": "%"},
      {"measurement": "residual activity", "setting": "[9]", "result": 90.4, "unit": "%"},
      {"measurement": "residual activity", "setting": "[10]", "result": 101, "unit": "%"},
      {"measurement": "residual activity", "setting": "[11]", "result": 86.5, "unit": "%"},
      {"measurement": "residual activity", "setting": "[12]", "result": 105, "unit": "%"},
      {"measurement": "residual activity", "setting": "[13]", "result": 99.4, "unit": "%"},
      {"measurement": "residual activity", "setting": "[14]", "result": 94, "unit": "%"},
      {"measurement": "residual activity", "setting": "[15]", "result": 96.2, "unit": "%"},
      {"measurement": "residual activity", "setting": "[16]", "result": 90.3, "unit": "%"},
      {"measurement": "residual activity", "setting": "[17]", "result": 101, "unit": "%"},
      {"measurement": "residual activity", "setting": "[18]", "result": 89.3, "unit": "%"},
      {"measurement": "residual activity", "setting": "[19]", "result": 93.4, "unit": "%"},
      {"measurement": "residual activity", "setting": "[20]", "result": 106, "unit": "%"},
      {"measurement": "residual activity", "setting": "[21]", "result": 110, "unit": "%"},
      {"measurement": "residual activity", "setting": "[22]", "result": 105, "unit": "%"},
      {"measurement": "residual activity", "setting": "[23]", "result": 102, "unit": "%"},
      {"measurement": "residual activity", "setting": "[24]", "result": 80.6, "unit": "%"},
      {"measurement": "residual activity", "setting": "[25]", "result": 93.1, "unit": "%"},
      {"measurement": "residual activity", "setting": "[26]", "result": 101, "unit": "%"},
      {"measurement": "residual activity", "setting": "[27]", "result": 98.7, "unit": "%"},
      {"measurement": "residual activity", "setting": "[28]", "result": 86.8, "unit": "%"},
      {"measurement": "residual activity", "setting": "[29]", "result": 76.6, "unit": "%"},
      {"measurement": "residual activity", "setting": "[30]", "result": 101, "unit": "%"},
      {"measurement": "residual activity", "setting": "[31]", "result": 101, "unit": "%"},
      {"measurement": "residual activity", "setting": "[32]", "result": 97.3, "unit": "%"},
      {"measurement": "residual activity", "setting": "[33]", "result": 89, "unit": "%"},
      {"measurement": "residual activity", "setting": "[34]", "result": 94.4, "unit": "%"},
      {"measurement": "residual activity", "setting": "[35]", "result": 88.1, "unit": "%"},
      {"measurement": "residual activity", "setting": "[36]", "result": 94.7, "unit": "%"},
      {"measurement": "residual activity", "setting": "[37]", "result": 50.3, "unit": "%"},
      {"measurement": "residual activity", "setting": "[38]", "result": 93.6, "unit": "%"},
      {"measurement": "residual activity", "setting": "[39]", "result": 91.4, "unit": "%"},
      {"measurement": "residual activity", "setting": "[40]", "result": 99.3, "unit": "%"},
      {"measurement": "residual activity", "setting": "[41]", "result": 93.1, "unit": "%"},
      {"measurement": "residual activity", "setting": "[42]", "result": 94.4, "unit": "%"}
    ]}
  ]
}
